Assay [1] concerns the target Atypical kinase COQ8A, mitochondrial (Homo sapiens, UniProt Q8NI60).
For assay [2], the target named is RAC-alpha serine/threonine-protein kinase (Homo sapiens, UniProt P31749).
Assay [3] deals with BMP-2-inducible protein kinase (Homo sapiens, UniProt Q9NSY1).
Assay [4] concerns the target Dual specificity protein kinase CLK1 (Homo sapiens, UniProt P49759).
For assay [5], the target named is DnaJ homolog subfamily A member 1 (Homo sapiens, UniProt P31689).
Assay [6] has as its target Ephrin type-A receptor 5 (Homo sapiens, UniProt P54756).
Assay [7] concerns the target T1, Ephrin type-B receptor 6 (Homo sapiens, UniProt O15197).
T1 sequence (O15197 whole entry): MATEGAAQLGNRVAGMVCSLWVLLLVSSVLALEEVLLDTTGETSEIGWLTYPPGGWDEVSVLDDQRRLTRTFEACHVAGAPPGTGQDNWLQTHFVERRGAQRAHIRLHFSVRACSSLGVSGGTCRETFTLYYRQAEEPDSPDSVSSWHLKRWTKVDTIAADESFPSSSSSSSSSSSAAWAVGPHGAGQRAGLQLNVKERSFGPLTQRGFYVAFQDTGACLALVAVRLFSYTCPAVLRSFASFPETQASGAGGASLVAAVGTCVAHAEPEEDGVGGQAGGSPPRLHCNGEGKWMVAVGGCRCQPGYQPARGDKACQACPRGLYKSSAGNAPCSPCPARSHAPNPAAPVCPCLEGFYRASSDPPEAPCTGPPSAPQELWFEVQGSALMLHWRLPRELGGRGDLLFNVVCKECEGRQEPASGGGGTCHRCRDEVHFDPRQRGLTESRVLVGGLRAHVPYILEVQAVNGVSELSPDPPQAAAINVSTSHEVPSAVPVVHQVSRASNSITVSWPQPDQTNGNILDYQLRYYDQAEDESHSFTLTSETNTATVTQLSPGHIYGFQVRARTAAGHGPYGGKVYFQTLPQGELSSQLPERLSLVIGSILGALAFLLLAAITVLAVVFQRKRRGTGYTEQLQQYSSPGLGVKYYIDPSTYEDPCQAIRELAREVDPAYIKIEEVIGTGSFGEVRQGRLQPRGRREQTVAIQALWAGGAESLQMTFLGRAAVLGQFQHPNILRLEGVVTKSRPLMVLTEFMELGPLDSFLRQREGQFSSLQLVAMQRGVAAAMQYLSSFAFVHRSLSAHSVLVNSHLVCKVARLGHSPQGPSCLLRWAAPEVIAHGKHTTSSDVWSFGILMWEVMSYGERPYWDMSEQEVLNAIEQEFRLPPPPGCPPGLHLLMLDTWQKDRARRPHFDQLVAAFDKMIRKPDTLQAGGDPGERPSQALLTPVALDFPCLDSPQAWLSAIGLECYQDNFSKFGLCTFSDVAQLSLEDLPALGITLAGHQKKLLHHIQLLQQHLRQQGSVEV

Assay [8] concerns the target T2, Electron transfer flavoprotein subunit beta (Homo sapiens, UniProt P38117).
T2 sequence (P38117 whole entry): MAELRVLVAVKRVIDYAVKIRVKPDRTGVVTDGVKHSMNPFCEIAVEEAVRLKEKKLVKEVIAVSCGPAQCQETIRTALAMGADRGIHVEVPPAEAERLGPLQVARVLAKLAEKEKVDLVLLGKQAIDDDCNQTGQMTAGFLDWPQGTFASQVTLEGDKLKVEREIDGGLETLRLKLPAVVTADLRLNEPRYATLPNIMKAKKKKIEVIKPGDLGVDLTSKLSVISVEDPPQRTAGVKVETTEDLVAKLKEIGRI

The target in assay [9] is Glycogen synthase kinase-3 alpha (Homo sapiens, UniProt P49840).
The target of assay [10] is Interleukin-1 receptor-associated kinase 1 (Homo sapiens, UniProt P51617).
Assay [11] addresses Dual specificity mitogen-activated protein kinase kinase 2 (Homo sapiens, UniProt P36507).
Assay [12] addresses T3, Dual specificity mitogen-activated protein kinase kinase 3 (Homo sapiens, UniProt P46734).
T3 sequence (P46734 whole entry): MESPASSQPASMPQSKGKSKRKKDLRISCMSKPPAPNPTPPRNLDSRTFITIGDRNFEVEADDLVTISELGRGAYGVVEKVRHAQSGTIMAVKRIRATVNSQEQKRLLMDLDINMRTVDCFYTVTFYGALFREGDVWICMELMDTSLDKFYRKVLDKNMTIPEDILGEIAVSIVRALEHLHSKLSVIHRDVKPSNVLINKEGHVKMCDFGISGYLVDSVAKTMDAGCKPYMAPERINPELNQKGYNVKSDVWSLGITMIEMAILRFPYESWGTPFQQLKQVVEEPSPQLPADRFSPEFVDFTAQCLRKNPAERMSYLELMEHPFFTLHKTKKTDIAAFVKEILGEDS

The target in assay [13] is MAP kinase-activated protein kinase 2 (Homo sapiens, UniProt P49137).
The target in assay [14] is T4, Membrane-associated tyrosine- and threonine-specific cdc2-inhibitory kinase (Homo sapiens, UniProt Q99640).
T4 sequence (Q99640 whole entry): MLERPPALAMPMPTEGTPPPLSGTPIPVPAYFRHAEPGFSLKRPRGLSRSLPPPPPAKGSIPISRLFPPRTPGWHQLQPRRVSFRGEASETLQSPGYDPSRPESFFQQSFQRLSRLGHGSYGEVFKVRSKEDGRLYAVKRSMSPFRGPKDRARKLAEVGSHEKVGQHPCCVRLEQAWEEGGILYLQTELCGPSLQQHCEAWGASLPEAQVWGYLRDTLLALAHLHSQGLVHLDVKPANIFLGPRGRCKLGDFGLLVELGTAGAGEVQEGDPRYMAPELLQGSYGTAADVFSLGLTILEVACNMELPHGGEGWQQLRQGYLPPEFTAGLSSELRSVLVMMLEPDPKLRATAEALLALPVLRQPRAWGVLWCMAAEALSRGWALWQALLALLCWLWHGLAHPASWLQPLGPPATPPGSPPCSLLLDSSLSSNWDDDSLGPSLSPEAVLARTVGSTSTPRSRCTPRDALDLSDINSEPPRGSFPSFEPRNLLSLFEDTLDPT

The target in assay [15] is Ribosomal protein S6 kinase alpha-6 (Homo sapiens, UniProt Q9UK32).
Sequence of Ribosomal protein S6 kinase alpha-6 (Q9UK32 whole entry): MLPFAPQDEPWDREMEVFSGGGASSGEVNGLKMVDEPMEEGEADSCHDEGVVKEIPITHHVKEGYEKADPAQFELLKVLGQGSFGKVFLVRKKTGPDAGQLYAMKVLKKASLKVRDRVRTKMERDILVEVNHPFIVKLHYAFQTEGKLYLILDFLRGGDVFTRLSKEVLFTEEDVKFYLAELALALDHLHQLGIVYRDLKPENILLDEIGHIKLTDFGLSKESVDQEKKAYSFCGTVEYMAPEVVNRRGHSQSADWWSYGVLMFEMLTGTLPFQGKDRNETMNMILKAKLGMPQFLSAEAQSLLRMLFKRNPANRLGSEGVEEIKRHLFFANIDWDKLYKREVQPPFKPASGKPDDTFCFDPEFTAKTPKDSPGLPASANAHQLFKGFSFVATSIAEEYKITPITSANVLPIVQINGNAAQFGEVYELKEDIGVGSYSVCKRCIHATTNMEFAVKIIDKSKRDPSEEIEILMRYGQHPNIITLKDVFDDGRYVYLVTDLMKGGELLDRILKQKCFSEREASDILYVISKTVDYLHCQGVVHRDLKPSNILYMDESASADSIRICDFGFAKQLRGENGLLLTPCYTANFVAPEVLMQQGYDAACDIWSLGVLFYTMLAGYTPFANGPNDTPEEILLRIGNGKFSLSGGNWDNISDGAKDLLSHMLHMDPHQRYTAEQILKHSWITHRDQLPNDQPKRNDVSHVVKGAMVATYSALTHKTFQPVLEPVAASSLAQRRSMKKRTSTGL
The target in assay [16] is Serine/threonine-protein kinase 10 (Homo sapiens, UniProt O94804).
Sequence of Serine/threonine-protein kinase 10 (O94804 whole entry): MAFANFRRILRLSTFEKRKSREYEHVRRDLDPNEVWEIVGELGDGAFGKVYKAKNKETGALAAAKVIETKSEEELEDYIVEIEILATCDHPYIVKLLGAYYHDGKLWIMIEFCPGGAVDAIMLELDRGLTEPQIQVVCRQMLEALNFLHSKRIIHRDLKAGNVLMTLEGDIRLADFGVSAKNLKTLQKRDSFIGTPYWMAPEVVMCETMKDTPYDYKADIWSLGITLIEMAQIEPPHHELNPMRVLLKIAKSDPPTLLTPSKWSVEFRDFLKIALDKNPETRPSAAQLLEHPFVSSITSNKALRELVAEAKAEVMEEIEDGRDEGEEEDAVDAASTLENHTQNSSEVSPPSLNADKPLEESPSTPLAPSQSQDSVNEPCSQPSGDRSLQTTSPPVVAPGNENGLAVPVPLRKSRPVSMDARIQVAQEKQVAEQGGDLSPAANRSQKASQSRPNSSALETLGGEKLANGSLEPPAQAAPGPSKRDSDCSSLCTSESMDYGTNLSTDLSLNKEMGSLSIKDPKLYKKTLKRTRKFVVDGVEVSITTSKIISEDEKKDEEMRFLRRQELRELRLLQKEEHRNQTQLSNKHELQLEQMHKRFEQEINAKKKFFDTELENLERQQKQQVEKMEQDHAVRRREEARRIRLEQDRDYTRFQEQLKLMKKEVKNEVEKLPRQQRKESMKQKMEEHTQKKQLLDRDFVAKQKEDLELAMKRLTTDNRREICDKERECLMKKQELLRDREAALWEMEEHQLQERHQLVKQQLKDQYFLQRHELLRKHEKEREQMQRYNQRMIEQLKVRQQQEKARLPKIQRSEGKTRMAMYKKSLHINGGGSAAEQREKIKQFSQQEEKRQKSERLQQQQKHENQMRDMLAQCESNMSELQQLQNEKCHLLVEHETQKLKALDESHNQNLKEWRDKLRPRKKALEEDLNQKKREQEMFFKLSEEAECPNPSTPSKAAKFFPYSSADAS

The source made the active and inactive calls. For most assays here, no stated cut-off is given here; in the data, actives have a measured Kd and inactives only a lower limit.

For orientation: Kd means the free concentration of one partner at which half of the binding sites on the other are occupied at equilibrium, for simple one-to-one binding.

Sequence of BMP-2-inducible protein kinase (Q9NSY1 whole entry): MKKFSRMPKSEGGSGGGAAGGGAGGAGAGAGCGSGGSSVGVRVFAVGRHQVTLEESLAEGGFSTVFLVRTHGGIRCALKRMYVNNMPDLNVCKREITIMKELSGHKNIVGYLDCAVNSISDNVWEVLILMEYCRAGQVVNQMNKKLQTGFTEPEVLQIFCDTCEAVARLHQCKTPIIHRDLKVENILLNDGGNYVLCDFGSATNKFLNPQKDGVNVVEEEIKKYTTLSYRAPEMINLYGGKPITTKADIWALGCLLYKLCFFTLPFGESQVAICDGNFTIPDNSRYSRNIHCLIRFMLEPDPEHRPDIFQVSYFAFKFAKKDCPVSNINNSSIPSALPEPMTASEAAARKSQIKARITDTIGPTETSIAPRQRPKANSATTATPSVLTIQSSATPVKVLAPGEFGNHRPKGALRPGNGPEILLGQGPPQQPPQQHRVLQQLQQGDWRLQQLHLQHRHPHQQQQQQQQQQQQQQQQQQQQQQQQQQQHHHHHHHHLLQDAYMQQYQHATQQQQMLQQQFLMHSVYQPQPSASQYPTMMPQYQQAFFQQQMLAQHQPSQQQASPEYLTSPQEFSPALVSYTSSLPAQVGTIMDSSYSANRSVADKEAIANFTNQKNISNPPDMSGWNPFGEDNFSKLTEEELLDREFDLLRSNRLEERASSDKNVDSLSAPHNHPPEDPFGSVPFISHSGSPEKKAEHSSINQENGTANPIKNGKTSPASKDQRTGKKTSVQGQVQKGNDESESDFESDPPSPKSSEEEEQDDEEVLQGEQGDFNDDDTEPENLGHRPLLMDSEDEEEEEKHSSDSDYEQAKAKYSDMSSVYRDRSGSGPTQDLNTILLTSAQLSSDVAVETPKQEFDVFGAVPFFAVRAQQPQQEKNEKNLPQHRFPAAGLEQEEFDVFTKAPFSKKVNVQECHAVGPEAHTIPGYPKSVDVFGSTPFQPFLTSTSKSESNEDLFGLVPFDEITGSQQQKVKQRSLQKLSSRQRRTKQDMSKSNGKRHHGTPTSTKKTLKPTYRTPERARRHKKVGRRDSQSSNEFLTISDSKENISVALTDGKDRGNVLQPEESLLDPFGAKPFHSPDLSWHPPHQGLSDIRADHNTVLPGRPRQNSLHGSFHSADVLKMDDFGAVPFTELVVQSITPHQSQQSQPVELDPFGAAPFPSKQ
Sequence of Ephrin type-A receptor 5 (P54756 whole entry): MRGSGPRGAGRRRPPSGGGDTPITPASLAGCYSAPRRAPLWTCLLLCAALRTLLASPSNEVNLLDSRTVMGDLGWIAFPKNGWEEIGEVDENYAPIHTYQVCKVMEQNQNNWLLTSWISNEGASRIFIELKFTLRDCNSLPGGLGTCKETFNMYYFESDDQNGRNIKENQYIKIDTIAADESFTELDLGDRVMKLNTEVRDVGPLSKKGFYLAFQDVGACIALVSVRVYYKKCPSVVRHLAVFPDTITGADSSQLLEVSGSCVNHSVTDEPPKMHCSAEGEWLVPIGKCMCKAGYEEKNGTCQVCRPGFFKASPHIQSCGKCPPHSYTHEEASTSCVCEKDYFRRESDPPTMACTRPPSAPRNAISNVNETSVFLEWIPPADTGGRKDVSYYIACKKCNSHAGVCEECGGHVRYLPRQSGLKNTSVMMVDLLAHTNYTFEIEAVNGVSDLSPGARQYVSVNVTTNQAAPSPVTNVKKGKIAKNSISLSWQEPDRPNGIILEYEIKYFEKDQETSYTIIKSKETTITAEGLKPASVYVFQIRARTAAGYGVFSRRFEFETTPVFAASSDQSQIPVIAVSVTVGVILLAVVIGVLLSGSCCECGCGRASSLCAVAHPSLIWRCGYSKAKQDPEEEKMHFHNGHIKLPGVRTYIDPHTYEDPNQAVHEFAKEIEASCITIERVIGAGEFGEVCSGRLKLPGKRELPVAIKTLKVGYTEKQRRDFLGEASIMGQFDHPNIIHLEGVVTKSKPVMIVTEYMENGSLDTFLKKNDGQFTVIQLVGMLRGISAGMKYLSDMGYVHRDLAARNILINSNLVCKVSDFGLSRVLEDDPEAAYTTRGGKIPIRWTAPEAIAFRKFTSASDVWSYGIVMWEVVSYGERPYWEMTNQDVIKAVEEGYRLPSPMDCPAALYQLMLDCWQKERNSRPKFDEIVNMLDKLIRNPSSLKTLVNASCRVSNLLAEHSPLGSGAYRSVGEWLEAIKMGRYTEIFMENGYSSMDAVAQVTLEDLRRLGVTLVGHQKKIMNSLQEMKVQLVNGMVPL
Sequence of Dual specificity mitogen-activated protein kinase kinase 2 (P36507 whole entry): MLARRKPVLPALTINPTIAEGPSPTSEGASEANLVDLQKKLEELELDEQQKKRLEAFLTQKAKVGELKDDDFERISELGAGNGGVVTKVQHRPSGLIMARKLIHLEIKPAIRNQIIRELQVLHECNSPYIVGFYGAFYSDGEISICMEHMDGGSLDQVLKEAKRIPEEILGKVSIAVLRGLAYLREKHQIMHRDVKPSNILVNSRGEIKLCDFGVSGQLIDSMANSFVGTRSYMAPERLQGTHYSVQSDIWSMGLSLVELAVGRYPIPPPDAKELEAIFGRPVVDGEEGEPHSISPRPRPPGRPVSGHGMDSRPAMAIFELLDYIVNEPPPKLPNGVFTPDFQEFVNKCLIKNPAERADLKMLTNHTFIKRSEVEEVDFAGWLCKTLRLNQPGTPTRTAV
Sequence of RAC-alpha serine/threonine-protein kinase (P31749 whole entry): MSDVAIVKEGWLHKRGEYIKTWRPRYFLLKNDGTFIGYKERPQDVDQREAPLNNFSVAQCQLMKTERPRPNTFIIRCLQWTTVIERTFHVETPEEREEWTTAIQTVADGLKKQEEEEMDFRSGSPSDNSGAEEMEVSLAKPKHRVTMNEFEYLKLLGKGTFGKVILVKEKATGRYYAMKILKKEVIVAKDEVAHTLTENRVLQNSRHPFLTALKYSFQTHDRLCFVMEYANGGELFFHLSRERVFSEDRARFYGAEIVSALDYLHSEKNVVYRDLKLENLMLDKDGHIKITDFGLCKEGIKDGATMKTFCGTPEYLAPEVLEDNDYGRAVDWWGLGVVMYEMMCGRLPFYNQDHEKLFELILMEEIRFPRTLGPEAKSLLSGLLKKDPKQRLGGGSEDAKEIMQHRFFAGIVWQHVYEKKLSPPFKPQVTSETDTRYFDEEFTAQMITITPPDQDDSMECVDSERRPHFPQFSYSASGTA

As for `CO[C@H]1C[C@@H]2CC[C@@H](C)[C@@](O)(O2)C(=O)C(=O)N2CCCC[C@H]2C(=O)O[C@H]([C@H](C)C[C@@H]2CC[C@@H](OCCO)[C@H](OC)C2)CC(=O)[C@H](C)/C=C(\C)[C@@H](O)[C@@H](OC)C(=O)[C@H](C)C[C@H](C)/C=C/C=C/C=C/1C` [EVEROLIMUS], the Kd in [1], in assay [2], in assay [3], in assay [4], in assay [5] and in assay [6] was > 30 µM (inactive) throughout. Also, the Kd in [7], in assay [8], in assay [9], in assay [10], in [11] and in assay [12] was > 30 µM (inactive) in each case. In addition, the Kd in assay [13], in [14], in assay [15] and in [16] was > 30 µM (inactive) each time.
Consider `Cc1ccc(NC(=O)c2ccc(CN3CC[C@H](N(C)C)C3)c(C(F)(F)F)c2)cc1Nc1nccc(-c2cncnc2)n1` [BAFETINIB], for which the Kd in assay [1] is > 30 µM (inactive); in assay [2], > 30 µM (inactive); in [3], > 30 µM (inactive); in assay [4], > 30 µM (inactive); in [5] it was > 30 µM (inactive); in assay [6], 0.345 µM. Moreover, the Kd in assay [7] was > 30 µM (inactive); in assay [8], > 30 µM (inactive); in [9] it was > 30 µM (inactive); in [10], 2.06 µM; in assay [11] it was > 30 µM (inactive); in [12] it was > 30 µM (inactive). In addition, the Kd in [13] was 0.304 µM (active); in [14], > 30 µM (inactive); in [15] it was > 30 µM (inactive); in [16], > 30 µM (inactive).
As to `C[C@@H]1CN(Cc2ccc(F)cc2)[C@@H](C)CN1C(=O)c1cc2c(C(=O)C(=O)N(C)C)cn(C)c2cc1Cl` [TALMAPIMOD], the Kd in [1], in [2], in assay [3], in assay [4], in [5] and in assay [6] was > 30 µM (inactive) throughout. For the same compound, the Kd in assay [7], in [8], in assay [9], in assay [10], in assay [11] and in assay [12] was > 30 µM (inactive) throughout. The Kd in [13] was 0.019 µM; in [14] it was > 30 µM (inactive); in assay [15], > 30 µM (inactive); in assay [16], > 30 µM (inactive).
Regarding `CCS(=O)(=O)N1CC(CC#N)(n2cc(-c3ncnc4[nH]ccc34)cn2)C1` [BARICITINIB], the Kd was > 30 µM (inactive) in assay [1]; > 30 µM (inactive) in [2]; 0.778 µM in assay [4]; > 30 µM (inactive) in [5]; > 30 µM (inactive) in assay [6]; > 30 µM (inactive) in assay [7]. The Kd in [8], in assay [9], in [10], in assay [11], in assay [12] and in [13] was > 30 µM (inactive) each time. The Kd in assay [14], in [15] and in assay [16] was > 30 µM (inactive) in each case.
As to `COc1ccc(-c2ccc3c(N4CCOC[C@@H]4C)nc(N4CCOC[C@@H]4C)nc3n2)cc1CO` [AZD-8055], the Kd in assay [1], in [2], in [3], in assay [4], in [5] and in [6] was > 30 µM (inactive) in each case. Besides, the Kd in [7], in assay [8], in assay [9], in assay [10], in [11] and in [12] was > 30 µM (inactive) throughout. Also, the Kd in assay [13], in assay [14], in [15] and in [16] was > 30 µM (inactive) in each case.
Regarding `N[C@@H]1CCCN(c2c(/C=C3\SC(=O)NC3=O)cccc2-c2ccccc2)C1`, the Kd in assay [1], in [2], in assay [3], in [5], in assay [7] and in assay [8] was > 30 µM (inactive) in each case. In addition, the Kd in assay [9], in [10], in [11], in assay [12], in assay [13] and in [14] was > 30 µM (inactive) throughout. For the same compound, the Kd in [15] and in [16] was > 30 µM (inactive) in each case.
Turning to `CN1N=C(N)c2cn([C@@H]3O[C@H](COP(=O)(O)O)[C@@H](O)[C@H]3O)c3ncnc1c23` [TRICIRIBINE PHOSPHATE], the Kd in [1], in assay [2], in [3], in [5], in assay [6] and in assay [8] was > 30 µM (inactive) each time. Also, the Kd in [9], in assay [10], in assay [11], in [12], in assay [13] and in assay [14] was > 30 µM (inactive) each time. The Kd in [15] and in assay [16] was > 30 µM (inactive) in each case.
